Source: patent US11505548B2, “Heterocyclic compounds and their use for treatment of helminthic infections and diseases” (Celgene Corporation, priority 2019, dated 2022)

Each molecule was assayed on Onchocerca gutturosa Adult Male Worms (assay: Onchocerciasis in vitro screening model, worm motility score). Conditions: Onchocerca gutturosa; Table 1 O. gutturosa; levels A/B/C; motility or MTT readout not specified; read-out: O. gutturosa activity level (IC50 or MED).
Type: cell-based

SMILES | IC50
Cc1cccnc1Nc1nc(-c2ccc(OC3CC3)cn2)ns1 [Compound 38, 3-(5-cyclo-propoxypyridin-2-yl)-N-(3-methyl-pyridin-2-yl)-1,2,4-thiadiazol-5-amine] | < 200 nM
Cc1cccnc1Nc1nc(-c2cc(C#N)ccn2)ns1 [Compound 40, 2-(5-(3-methyl-pyridin-2-ylamino)-1,2,4-thiadiazol-3-yl)isonicotino-nitrile] | 500 to 5000 nM
Cc1cccnc1-c1nnc(Nc2ccccn2)[nH]1 [Compound 41, N-(5-(3-methyl-pyridin-2-yl)-4H-1,2,4-triazol-3-yl)pyridin-2-amine] | < 200 nM
Cc1cccnc1-c1noc(Nc2ccc(N3CCCC3)cn2)n1 [Compound 42, 3-(3-methyl-pyridin-2-yl)-N-(5-(pyrrolidin-1-yl)pyridin-2-yl)-1,2,4-oxadiazol-5-amine] | < 200 nM
Cc1cccnc1Nc1nc(-c2ccc(OC3CCN(C4CC4)CC3)cn2)ns1 [Compound 45, 3-(5-(1-cyclo-propylpiperidin-4-yloxy)pyridin-2-yl)-N-(3-methylpyridin-2-yl)-1,2,4-thiadiazol-5-amine] | < 200 nM
Cc1cccnc1-c1nsc(Nc2ccc(N3CCCC3)cn2)n1 [Compound 51, 3-(3-methyl-pyridin-2-yl)-N-(5-(pyrrolidin-1-yl)pyridin-2-yl)-1,2,4-thiadiazol-5-amine] | < 200 nM
Cc1cccnc1Nc1nc(-c2ccc(OC(F)(F)F)cn2)ns1 [Compound 52, N-(3-methyl-pyridin-2-yl)-3-(5-(trifluoro-methoxy)pyridin-2-yl)-1,2,4-thiadiazol-5-amine] | < 200 nM
CC(C)Oc1ccc(-c2nsc(Nc3ncccc3C(F)(F)F)n2)nc1 [Compound 54, 3-(5-isopropoxy-pyridin-2-yl)-N-(3-(trifluoromethyl)pyridin-2-yl)-1,2,4-thiadiazol-5-amine] | < 200 nM
CN1CCC(Oc2ccc(-c3nsc(Nc4ncccc4C(F)(F)F)n3)nc2)CC1 [Compound 55, 3-(5-(1-methyl-piperidin-4-yloxy)pyridin-2-yl)-N-(3-(trifluoromethyl)pyridin-2-yl)-1,2,4-thiadiazol-5-amine] | < 200 nM
CC(C)Oc1ccc(-c2nsc(Nc3ncccc3N(C)C)n2)nc1 [Compound 56, N2-(3-(5-isoprop-oxypyridin-2-yl)-1,2,4-thiadiazol-5-yl)-N3,N3 - dimethyl-pyridine-2,3-diamine] | 500 to 5000 nM
CN1CCC(Oc2ccnc(-c3nsc(Nc4ncccc4C(F)(F)F)n3)c2)CC1 [Compound 62, 3-(4-(1-methyl-piperidin-4-yloxy)pyridin-2-yl)-N-(3-(trifluoromethyl)pyridin-2-yl)-1,2,4-thiadiazol-5-amine] | < 200 nM
Cc1cccnc1Nc1nc(-c2cc(OC3CC3)ccn2)ns1 [Compound 65, 3-(4-cycloprop-oxypyridin-2-yl)-N-(3-methyl-pyridin-2-yl)-1,2,4-thiadiazol-5-amine] | 500 to 5000 nM
CC(C)c1ccnc(-c2nsc(Nc3ncccc3C(F)(F)F)n2)c1 [Compound 67, 3-(4-isopropyl-pyridin-2-yl)-N-(3-(trifluoromethyl)pyridin-2-yl)-1,2,4-thiadiazol-5-amine] | < 200 nM
COc1ccc(-c2nsc(Nc3ccc(C4CCCC4)cn3)n2)nc1 [Compound 68, N-(5-cyclopentyl-pyridin-2-yl)-3-(5-methoxypyridin-2-yl)-1,2,4-thiadiazol-5-amine] | 200 to 500 nM
CC(C)Oc1ccc(-c2n[nH]c(Nc3ncccc3C(F)(F)F)n2)nc1 [Compound 70, N-(3-(5-isopropoxy-pyridin-2-yl)-1H-1,2,4-triazol-5-yl)-3-(trifluoromethyl) pyridin-2-amine] | 500 to 5000 nM
Cc1cccnc1Nc1nc(-c2ccc(OCC3CC3)cn2)ns1 [Compound 73, 3-(5-(cyclopropyl-methoxy)pyridin-2-yl)-N-(3-methylpyridin-2-yl)-1,2,4-thiadiazol-5-amine] | < 200 nM
CC(C)c1cccnc1Nc1nc(-c2ccc(OC3CC3)cn2)ns1 [Compound 74, 3-(5-cyclopropoxy-pyridin-2-yl)-N-(3-isopropylpyridin-2-yl)-1,2,4-thiadiazol-5-amine] | < 200 nM
CC(C)Oc1ccc(-c2nsc(Nc3ncccc3C3CC3)n2)nc1 [Compound 76, N-(3-cyclopropyl-pyridin-2-yl)-3-(5-isopropoxy-pyridin-2-yl)-1,2,4-thiadiazol-5-amine] | < 200 nM

The next lines start with the values.

IC50 | SMILES
< 200 nM | CCOc1ccc(Nc2nc(-c3cc(OC)ccn3)no2)nc1 [Compound 35, N-(5-ethoxy-pyridin-2-yl)-3-(4-methoxy-pyridin-2-yl)-1,2,4-oxadiazol-5-amine]
500 to 5000 nM | CN1CCC(Oc2ccc(-c3nsc(Nc4ncccn4)n3)nc2)CC1 [Compound 36, 3-(5-(1-methyl-piperidin-4-yloxy)pyridin-2-yl)-N-(pyrimidin-2-yl)-1,2,4-thiadiazol-5-amine]
< 200 nM | Cc1ccnc(-c2nsc(Nc3ncccc3C(F)(F)F)n2)c1 [Compound 37, 3-(4-methyl-pyridin-2-yl)-N-(3-(trifluoro-methyl)pyridin-2-yl)-1,2,4-thiadiazol-5-amine]
< 200 nM | COc1ccc(-c2nsc(Nc3ccc(OC4CCOCC4)cn3)n2)nc1 [Compound 43, 3-(5-methoxy-pyridin-2-yl)-N-(5-(tetrahydro-2H-pyran-4-yloxy)pyridin-2-yl)-1,2,4-thiadiazol-5-amine]
< 200 nM | Cc1cccnc1Nc1nc(-c2cc(C3CCN(C)CC3)ccn2)ns1 [Compound 44, 3-(4-(1-methyl-piperidin-4-yl)pyridin-2-yl)-N-(3-methylpyridin-2-yl)-1,2,4-thiadiazol-5-amine]
200 to 500 nM | COc1ccc(-c2nsc(Nc3cc(OC4CCOCC4)ccn3)n2)nc1 [Compound 46, 3-(5-methoxy-pyridin-2-yl)-N-(4-(tetrahydro-2H-pyran-4-yloxy)pyridin-2-yl)-1,2,4-thiadiazol-5-amine]
500 to 5000 nM | COc1ccc(-c2noc(Nc3cc(OC4CCOCC4)ccn3)n2)nc1 [Compound 47, 3-(5-methoxy-pyridin-2-yl)-N-(4-(tetrahydro-2H-pyran-4-yloxy)pyridin-2-yl)-1,2,4-oxadiazol-5-amine]
500 to 5000 nM | Cc1cccnc1Nc1nc(-c2ccc(C3CCN(C)CC3)cn2)ns1 [Compound 48, 3-(5-(1-methyl-piperidin-4-yl)pyridin-2-yl)-N-(3-methylpyridin-2-yl)-1,2,4-thiadiazol-5-amine]
500 to 5000 nM | Cc1cccnc1-c1nsc(Nc2ccc(C3CCN(C)CC3)cn2)n1 [Compound 49, N-(5-(1-methyl-piperidin-4-yl)pyridin-2-yl)-3-(3-methylpyridin-2-yl)-1,2,4-thiadiazol-5-amine]
500 to 5000 nM | COc1ccc(-c2nsc(Nc3ccc(C4CCN(C)CC4)cn3)n2)nc1 [Compound 50, 3-(5-methoxy-pyridin-2-yl)-N-(5-(1-methyl-piperidin-4-yl)pyridin-2-yl)-1,2,4-thiadiazol-5-amine]
200 to 500 nM | CNc1cccnc1Nc1nc(-c2ccc(OC3CCN(C)CC3)cn2)ns1 [Compound 53, N3-methyl-N2-(3-(5-(1-methyl-piperidin-4-yloxy)pyridin-2-yl)-1,2,4-thiadiazol-5-yl) pyridine-2,3-diamine]
500 to 5000 nM | Cc1cccnc1Nc1nc(-c2ccc(C(=O)N3CCN(C)CC3)cn2)ns1 [Compound 57, (4-methyl-piperazin-1-yl)(6-(5-(3-methyl-pyridin-2-ylamino)-1,2,4-thiadiazol-3-yl)pyridin-3-yl) methanone]
200 to 500 nM | Cc1cccnc1Nc1nc(-c2ccc(C(=O)N3CCOCC3)cn2)ns1 [Compound 58, (6-(5-(3-methyl-pyridin-2-ylamino)-1,2,4-thiadiazol-3-yl)pyridin-3-yl)(morpholino) methanone]
500 to 5000 nM | CN1CCC(Oc2ccc(-c3nsc(Nc4ncccc4N(C)C)n3)nc2)CC1 [Compound 59, N3,N3-dimethyl-N2-(3-(5-(1-methylpiperidin-4-yloxy)pyridin-2-yl)-1,2,4-thiadiazol-5-yl)pyridine-2,3-diamine]
500 to 5000 nM | Cc1cccnc1Nc1nc(-c2ccc(C(=O)NCC(F)(F)F)cn2)ns1 [Compound 60, 6-(5-(3-methyl-pyridin-2-ylamino)-1,2,4-thiadiazol-3-yl)-N-(2,2,2-trifluoroethyl) nicotinamide]
200 to 500 nM | Cc1cccnc1Nc1nc(-c2ccc(C(=O)N3CCCC3)cn2)ns1 [Compound 61, (6-(5-(3-methyl-pyridin-2-ylamino)-1,2,4-thiadiazol-3-yl)pyridin-3-yl) (pyrrolidin-1-yl)methanone]
500 to 5000 nM | Cc1cccnc1Nc1nnc(-c2ccc(OC3CCN(C)CC3)cn2)s1 [Compound 63, 5-(5-(1-methyl-piperidin-4-yloxy)pyridin-2-yl)-N-(3-methylpyridin-2-yl)-1,3,4-thiadiazol-2-amine]
500 to 5000 nM | Cc1cccnc1Nc1nnc(-c2ccc(OC(C)C)cn2)s1 [Compound 64, 5-(5-isopropoxy-pyridin-2-yl)-N-(3-methyl-pyridin-2-yl)-1,3,4-thiadiazol-2-amine]
200 to 500 nM | COc1ccc(-c2nsc(Nc3cc(C(F)(F)F)c(C(C)C)cn3)n2)nc1 [Compound 66, N-(5-isopropyl-4-(trifluoromethyl)pyridin-2-yl)-3-(5-methoxy-pyridin-2-yl)-1,2,4-thiadiazol-5-amine]
200 to 500 nM | Cc1cccnc1Nc1nc(-c2ccc(OC(C)C)cn2)n[nH]1 [Compound 69, N-(3-(5-isopropoxy-pyridin-2-yl)-1H-1,2,4-triazol-5-yl)-3-methylpyridin-2-amine]
500 to 5000 nM | Cc1cccnc1Nc1nc(-c2ccc(OC3CCN(C)CC3)cn2)n[nH]1 [Compound 71, 3-methyl-N-(3-(5-(1-methyl-piperidin-4-yloxy)pyridin-2-yl)-1H-1,2,4-triazol-5-yl) pyridin-2-amine]
200 to 500 nM | Cc1cccnc1Nc1nc(-c2ccc(OC3CCN(C4CCCC4)CC3)cn2)ns1 [Compound 72, 3-(5-(1-cyclo-pentylpiperidin-4-yloxy)pyridin-2-yl)-N-(3-methylpyridin-2-yl)-1,2,4-thiadiazol-5-amine]
200 to 500 nM | Cc1cccnc1Nc1nc(-c2ccc(OC3CCN(CC4CC4)CC3)cn2)ns1 [Compound 75, 3-(5-(1-(cyclopropyl-methyl)piperidin-4-yloxy)pyridin-2-yl)-N-(3-methylpyridin-2-yl)-1,2,4-thiadiazol-5-amine]
